In brackets after ≈: the same amount, converted by molar mass.

For test [1], the system named is isolated guinea pig trachea, agonist substance P. The test can be described thus: antagonist of substance P-induced contraction of isolated guinea pig trachea. The test is classed as cell-based. The settings on record: Cavia porcellus, individual doses, 37° C., read-out: Anticontractile action (trachea), SP antagonism: concentration range for dilatation corresponding to ED50 range. An excerpt:
3. Activity as antagonist of the contraction of isolated guinea pig trachea
The compounds of the formula I are used as antagonists of the contraction of isolated guinea pig trachea. The agonists employed were PGF2α (Upjohn, Germany), calcium ionophore A23187 (Calbiochem, Bad Soden, Germany), and substance P (American Peptide Comp., USA):
The antagonism is possible on the one hand due to specific receptor antagonists, and on the other hand also due to inhibition of the subsequent signal pathway. Preparations which directly or indirectly increase the intracellular concentration of cyclic nucleotides in particular show spasmolytic properties here.
(§1) Preparation of the organ sections and experimental procedure:
The guinea pig is sacrificed by means of terminal laughing gas anaesthesia. The trachea is exposed along its entire length and cut into 15 individual cartilage rings. 5 rings in each case are tied together to give a chain and fixed in the organ bath under a preload of 3 g. After an equilibration time of 45 minutes, a contraction is produced using the agonist. The antagonist (test preparation) is added cumulatively on the plateau of the maximum. Evaluation is carried out in % force change relative to the contraction maximum. The experimental procedure is carried out at 37° C.; the physiological nutrient solution used is a modified Krebs-Henseleit solution through which is bubbled 95% by volume of O2, 5% by volume of CO2.
Experimental animals: albino guinea pigs (Hattersheim Animal Breeding Institute, Kastengrund, Germany), weight: 200 to 300 g, sex male or female.
Vehicle: double-distilled water, ethanol or isopropanol; administration: into the organ bath number of administration: cumulative, in SP individual doses
All numerical values are indicated in the unit μg/ml and relate to the concentration range of the tested compound of the formula I according to the invention (see example numbers in Table 1) which is necessary in order to cause a dilatation which corresponds to the ED50 range.

The test system of test [2] is muscle group (gastrocnemius, plantaris and soleus) of the immobilized right rear extremity. The test can be described thus: rat muscle function test: direct electrical stimulation of muscle group after 3 weeks' immobilization. The test is classed as in vivo, male Wistar rats. The settings on record: oral, 1x per day for 3 weeks, as a rule 25 mg/kg, ≤-12% classified as active; for Force (force under the contraction curve, right/left difference): isometric stimulation, control difference approx. 25%; for Work (performed work, right/left difference): isotonic stimulation, control approx. -25%. The text has this:
(§2) 1. Activity in the rat muscle function test
(§3) Male Wistar rats (body weight about 300 g) were kept under standard conditions with feed and water ad libitum. The right rear extremity was immobilized by fitting a kind of "shoe" to the animals under short-term anaesthesia. Two ergonomically fitted halves of the "shoe" were cast from a liquid plastic material which is also used for the production of dental prostheses, these were put onto the animal under brief anaesthesia and joined with the aid of a wire. The material is light but hard, so that the animals cannot gnaw the material, and the "shoe" can be opened at any time to examine the condition of the immobilized extremity. The two halves were moreover padded out with chamois leather in order to avoid compressions and possible injuries due to rubbing. The system also has the advantage that the angle of immobilization is standardized in all animals; this would not be possible with a plaster cast. The chosen angle allows the animals to take up a normal sitting position despite the "shoe" and also to carry the body weight using this extremity. Only complete stretching or bending of the leg is impossible.
(§4) After 3 weeks' immobilization of the right rear extremity and simultaneous oral administration of test preparations (1× per day using a stomach tube; as a rule 25 mg/kg of body weight, in carboxymethylcellulose, the animals were weighed and anaesthetized with pentobarbital (35 mg/kg i.p.). Functional parameters were measured during direct electrical stimulation of a muscle group (gastrocnemius, plantaris and soleus). This muscle group, merely called "muscle" in the following, was exposed at the ankle tendon and tied to a force transducer via the tendon.
To determine the contractile force, the muscles were stimulated isometrically, i.e. a preload of 0.5N was applied and the muscle was stimulated by means of a series of electrical pulses, which led to a maximum contraction, every 0.7 sec for 80 msec for a period of 15 min. […] The area under this contraction curve was evaluated and the difference in percent between the right atrophic and left normal muscle compared (force under the contraction curve as difference in percent (Δ%)). The difference in the control group is approximately 25%.
An isotonic muscle stimulation was used to determine the performed work of the muscle over time. In this type of measurement, the shortening of the muscle during contraction is used as a basis. To this end, a preload which corresponds to the body weight was applied to the muscles. A series of stimulation pulses (80 msec) were triggered every 3 sec and the muscle was stimulated for 15 min. The data (contraction force and distance travelled) were converted to the work performed in the unit J using an automated system. The difference in the work performed between the immobilized atrophic and the normal muscle in the control animals was approximately -25%.
Values which are positive indicate that the functional parameters of the immobilized muscle were better than those of the contralateral normal muscle.

The subject of another test is soleus muscle. The test can be described thus: rat muscle function test: muscle weight (atrophy of immobilized extremity). The test is classed as in vivo, male Wistar rats. The settings on record: oral, 1x per day for 3 weeks, as a rule 25 mg/kg, difference ≤25% classified as an effect.
Source text: as §2, §3
In spite of this, a significant decrease in the skeletal muscle mass (atrophy) of the immobilized extremity occurred, to be precise up to -35% in comparison with the contralateral nonimmobilized rear extremity. As the soleus muscle was the most severely affected, the changes in muscle weight after administration of preparation shown in Table 1 relate to this muscle. A difference of ≤25% between the right immobilized and left non-immobilized rear extremity was classified as an effect.
as §4

In another test the test system is phosphodiesterase III. The test can be described thus: inhibition of phosphodiesterase III activity. The test is classed as biochemical. Particulars: at 100 μM. As for the experimental part: 5. Inhibition of phosphodiesterase III activity
The test is carried out using phosphodiesterase from Boehringer Mannheim (Mannheim, Germany), Order No. 108 243 according to the method of T. SAEKI, I. SAITO, Biochem. Pharm. 46, No. 5, […], pages 833-839.
All numerical values are indicated in % inhibition of the enzyme activity at 100 μM of the corresponding compound of the formula I.

In test [3] the test system is isolated guinea pig lung strips, Platelet activating factor (PAF). The test can be described thus: antagonist of PAF-induced contraction of isolated guinea pig lung strips. The test is classed as cell-based. The settings on record: Cavia porcellus, read-out: Anticontractile action (lung), PAF: concentration range corresponding to the IC50 value.
Source text: (§5) 4. Activity as an antagonist of the contraction of isolated guinea pig lung strips
(§6) The test carried out is based on the same principle as the test indicated in the pharmacological test 3; however, lung strips are used here.
as §1
(§7) The guinea pig is sacrificed under laughing gas anaesthesia. The entire pulmonary tract is exposed starting from the trachea. The lobes of the lung are cut in a circular fashion such that 3 mm wide strips are formed. The strips of the upper lobes are divided in order to obtain a total of six approximately equal size strips. The strips are suspended in the organ baths under a preload of 4 g. The nutrient solutions used are modified Krebs Henseleit solutions. When using "Platelet activating factor" (PAF) as an […], the composition of this solution corresponds to that for the agonist SP in "Test 3"; for the agonist LTD4 a Krebs Henseleit solution as in the case of the agonist KCl (Test 3) is used. 95% by volume O2, 5% by volume CO2 is used for bubbling through the bath; the bath temperature is 37° C. The experimental procedure is carried out in a therapeutically cumulative methodology, using the dosage graduations 1, 3, 6 and 10 μg/ml.
(§8) The experimental animals, organ bath, vehicles and manner of administration correspond to that stated in pharmacological test 3.
(§9) All numerical values are indicated in the unit μg/ml and relate to the concentration range of tested compound of the formula I (see example numbers in Table 1) which is necessary in order to cause a contraction which corresponds to the IC50 value.

In test [4] the test system is isolated guinea pig lung strips, leukotriene D4 (LTD4). The test can be described thus: antagonist of LTD4-induced contraction of isolated guinea pig lung strips. The test is classed as cell-based. The settings on record: Cavia porcellus, read-out: Anticontractile action (lung), LTD4: concentration range corresponding to the IC50 value.
Source text: as §5, §6, §1, §7, §8, §9

As for `CCOP(=O)(CCCCn1cnc2c1c(=O)n(CCC(C)C)c(=O)n2C)OCC` [Example 15, Diethyl [4-(1-(3-methylbutyl)-3-methylxanthin-7-yl)butyl]phosphonate], the EC50 in test [1] fell in the range of 30 to 60 mg/L (≈ 70 to 140 µM). Besides, in test [2], the “Force (force under the contraction curve, right/left difference)” value is on record as “+5 Δ %” and the “Work (performed work, right/left difference)” value is recorded as “+2 Δ %”. For the same molecule, the “Muscle weight (right/left difference)” value with soleus muscle was 0 Δ %.
With `CCOP(=O)(CCCCCn1c(=O)c2c(ncn2CC)n(C)c1=O)OCC` [Example 20, Diethyl 5-(7-ethyl-3-methylxanthin-1-yl)pentylphosphonate], the EC50 in test [1] was in the range of 10 to 30 mg/L (≈ 25 to 74.9 µM). In addition, the “PDE III Inhibition” value with phosphodiesterase III is given as 65%.
In the case of `CCOP(=O)(CCCn1c(=O)c2c(ncn2C)n(C)c1=O)OCC` [Example 33, Diethyl [3-(3,7-dimethylxanthin-1-yl)propyl]phosphonate], in test [1], the EC50 was 10 to 30 mg/L (≈ 27.9 to 83.7 µM). Moreover, in test [2], the “Force (force under the contraction curve, right/left difference)” value is -7 Δ % and the “Work (performed work, right/left difference)” value was -10 Δ %. In the test on soleus muscle, the “Muscle weight (right/left difference)” value is -16 Δ %. The IC50 in test [3] lay within 3 to 6 mg/L (≈ 8.37 to 16.7 µM).
For `CCOP(=O)(CCCCn1c(=O)c2c(ncn2CCC(C)C)n(C)c1=O)OCC` [Example 41, Diethyl {4-[7-(3-methylbutyl)-3-methylxanthin-1-yl)butyl]phosphonate], the “PDE III Inhibition” value in the test on phosphodiesterase III was 56%.
Consider `CCOP(=O)(CCCCCn1c(=O)c2c(ncn2Cc2ccccc2)n(C)c1=O)OCC` [Example 43, Diethyl [5-(7-benzyl-3-methylxanthin-1-yl)pentyl]phosphonate], for which the IC50 lay in the range of 1 to 3 mg/L (≈ 2.16 to 6.49 µM) in test [3] and 1 to 6 mg/L (≈ 2.16 to 13 µM) in test [4]. For the same molecule, the “PDE III Inhibition” value in the test with phosphodiesterase III was 52%.
On to `CCOP(=O)(CCCn1c(=O)c2c(ncn2CC2CC2)n(C)c1=O)OCC` [Example 46, Diethyl [3-(7-cyclopropylmethyl-3-methylxanthin-1-yl)propyl]phosphonate], for which, in test [2], the “Force (force under the contraction curve, right/left difference)” value is recorded as “+1 Δ %” and the “Work (performed work, right/left difference)” value is recorded as “+9 Δ %”. In addition, the “Muscle weight (right/left difference)” value in the test with soleus muscle is on record as -17 Δ %. In addition, in the test with phosphodiesterase III, the “PDE III Inhibition” value turned out to be 67%.
Turning to `CCOP(=O)(CCCn1c(=O)c2c(ncn2C(C)C)n(C)c1=O)OCC` [Example 47], in test [1], the EC50 was 10 to 30 mg/L (≈ 25.9 to 77.6 µM). Moreover, the “Work (performed work, right/left difference)” value in test [2] is given as -6 Δ %. In addition, the “Muscle weight (right/left difference)” value in the test on soleus muscle is given as 0 Δ %. In addition, the “PDE III Inhibition” value in the test with phosphodiesterase III amounted to 64%.
For `CCCCn1cnc2c1c(=O)n(CCCCCP(=O)(OCC)OCC)c(=O)n2C` [Example 48, Diethyl [5-(7-butyl-3-methylxanthin-1-yl)pentyl]phosphonate], in test [2], the “Force (force under the contraction curve, right/left difference)” value was -3 Δ % and the “Work (performed work, right/left difference)” value was -7 Δ %. Also, the “Muscle weight (right/left difference)” value with soleus muscle is given as 0 Δ %. Also, in the test on phosphodiesterase III, the “PDE III Inhibition” value is 52%.
Turning to `CCOP(=O)(CCCCn1c(=O)c2c(ncn2CC2CC2)n(C)c1=O)OCC` [Example 50, Diethyl [4-(7-cyclopropylmethyl-3-methylxanthin-1-yl)butyl]phosphonate], the “PDE III Inhibition” value in the test with phosphodiesterase III came to 51%.
Regarding `CCCn1cnc2c1c(=O)n(CCCP(=O)(OCC)OCC)c(=O)n2C` [Example 55, Diethyl [3-(3-methyl-7-propylxanthin-1-yl)propyl]phosphonate], in test [3], the IC50 fell in the range of 1 to 3 mg/L (≈ 2.59 to 7.76 µM). Besides, the “PDE III Inhibition” value with phosphodiesterase III was determined as 59%.
For `CCCn1cnc2c1c(=O)n(CCCCCP(=O)(OCC)OCC)c(=O)n2CC` [Example 57, Diethyl [5-(3-ethyl-7-propylxanthin-1-yl)pentyl]phosphonate], in test [2], the “Force (force under the contraction curve, right/left difference)” value is -5 Δ % and the “Work (performed work, right/left difference)” value was -8 Δ %. Also, the “Muscle weight (right/left difference)” value in the test with soleus muscle was -17 Δ %. Moreover, the “PDE III Inhibition” value with phosphodiesterase III was found to be 70%.

(Values after patent publication US5728686A, “Alkylxanthine phosphonates and alkylxanthine phosphine oxides and their use as pharmaceuticals” (Hoechst Aktiengesellschaft, priority 1996, dated 1998).)
